Data: patent US5103018A, “Mitomycin derivatives” (Kyowa Hakko Kogyo Kabushiki Kaisha, priority 1986, dated 1992)
Values after ≈ are worked out from the molar mass of the structure shown.

How the values were obtained:
[1] = test system: Klebsiella pneumoniae ATCC 10031; assay: microbe, parasite or virus in culture; format: cell-based; settings: ATCC10031, pH 7, read-out: minimum inhibitory concentration, KP
Description: Certain Compounds I were selected. […] In this table, the microorganisms used are abbreviated as follows:
KP: Klebsiella pneumoniae ATCC 10031

[2] = test system: Streptococcus faecalis ATCC 10541; assay: Minimum inhibitory concentration, agar dilution method, SF; format: cell-based; settings: Enterococcus faecalis, ATCC10541, pH 7, read-out: minimum inhibitory concentration, SF
Description: (§1) Certain Compounds I were selected. Table 3 indicates their anti-bacterial activities in terms of their minimum inhibitory concentration (μg/ml), determined by the agar dilution method effected at a pH of 7.0. In this table, the microorganisms used are abbreviated as follows:
SF: Streptococcus faecalis ATCC 10541

ddy mice = assay: Acute toxicity; format: in vivo; settings: for C.I. (LD50/ED50) (in words): in comparison with mitomycin C
Method: (§2) Certain compounds were selected from Compounds I. The following Table 4 indicates anti-tumour activity against Sarcoma 180 solid tumour (ED50), acute toxicity (LD50) and effects on the peripheral leucocytes (WBC4000) of each compound.
(§3) Each animal of the test group consisting of 5 ddy mice was once administered (i.p.) with a test compound. […] The LD50 was determined by Behren Korber's method.

Acute toxicity = format: in vivo, mice (ddy); settings: mouse, in vivo, ip; for LD50 at 336 h: ddy mice, single i.p., 14 days, Behren Korber's method; for selectivity ratio: read-out: (C.I.)* = (LD50/ED50)/[(LD50/ED50) of MMC1]
Method: as §2, §3

Solubility in water = format: physicochemical; settings: for solubility: water
Escherichia coli ATCC 26 = assay: Minimum inhibitory concentration, agar dilution method, EC; format: cell-based; settings: Escherichia coli, ATCC26, pH 7, read-out: minimum inhibitory concentration, EC
Description: as §1
EC: Escherichia coli ATCC 26

[3] = test system: Staphylococcus aureus ATCC 6583P; assay: Minimum inhibitory concentration, agar dilution method, SA; format: cell-based; settings: Staphylococcus aureus, ATCC6583P, pH 7, read-out: minimum inhibitory concentration, SA
Description: as §1
SA: Staphylococcus aureus ATCC 6583P

P388 Leukemia = assay: Effect upon Leukemia P 388; format: in vivo, mouse (CDF1); settings: single i.p., 33 days
Method: (5) Effect upon Leukemia P 388:
Ascites cells were collected from P388 Leukemia-carrying mouse (DBA/2) 7 days after the implantation. The number of the cells of P388 Leukemia in the sample was counted. A physiological solution of sodium chloride was sterilized and used to prepare a cell suspension containing 5×10^6 tumour cells per ml. On each occasion, 0.2 ml of the suspension containing 1×10^6 cells was implanted into the abdominal cavity of each mouse (CDF1; body weight 20~25 g). 24 hours after implantation, the test compound was once given to each mouse of a test group consisting of 6 mice by abdominal injection.
The activity of the test samples was determined by the ratio of the average survival days of the treated animals to the average survival days of untreated animals viz. ILS % (Increased Life Span).

[4] = test system: Proteus vulgaris ATCC 6897; assay: Minimum inhibitory concentration, agar dilution method, PV; format: cell-based; settings: Proteus vulgaris, ATCC6897, pH 7, read-out: minimum inhibitory concentration, PV
Description: as §1
PV: Proteus vulgaris ATCC 6897

[5] = Equilibration between mitomycin-type and albomitomycin-type substance in aqueous solution; format: physicochemical; settings: aqueous solution (5 mg/ml), 25° C., 24 hours
Method: In the case wherein the compound of Example 1 described hereinafter was equilibrated by allowing to stand in an aqueous solution (5 mg/ml) at a temperature of 25° C. for 24 hours, the molar ratio of the albomitomycin-type substance was 8.5%.

Sarcoma 180 solid tumour = assay: animal or person; format: in vivo, mice (ddy strain); settings: for ED50: Mus musculus, Sarcoma-180, ip, 168 h, read-out: ED50 ip
Description: as §2
(1) Effect against Sarcoma 180 solid tumour:
5×10^6 cells of Sarcoma 180 solid tumour cells were abdominally implanted into male mice of ddy strain. 7 days after this, ascites cells were sampled. The cells were washed once with a sterilized physiological solution of sodium chloride and were used to prepare a cell suspension containing 5×10^7 cells per ml. On each occasion, 0.1 ml of the cell suspension was subcutaneously implanted into the right armpit of a male mouse (ddy strain; body weight 20±2 g). 24 hours after the implantation of the tumour cells, the test compound which was dissolved in a physiological solution of sodium chloride with or without addition of Tween 80 was abdominally administered to each mouse of a group consisting of 5 animals at a does of 0.1-0.2 ml. The anti-tumour activity was determined as follows:
7 days after the implantation, the major axis (a) and the minor axis (b) of the tumour were measured to calculate a value of "a×b^2 /2" which corresponds to the volume of the tumour. The anti-tumour activity was expressed by T/C viz. the ratio of the volume of the tumours (T) of the group of animals administered with the test compound to the corresponding volume of tumours (C) of the untreated animals.
(2) Determination of ED50 :
The term ED50 denotes the administered amount needed for reducing the volume of Sarcoma 180 solid tumours in the animals to 50% on the basis of the corresponding volume of Sarcoma 180 solid tumours in control (untreated) animals.
On graph paper, T/C was indicated by an arithmetic scale on the longitudinal axis and the administered amount of test compound was indicated by a logarithmic scale on the lateral axis.

peripheral leucocytes = assay: in vivo; format: in vivo, mice (ddy strain); settings: for WBC4000/ED50 (in words): in comparison with mitomycin C
Method: as §2
(§4) (4) Effect upon the number of the peripheral leucocytes:
(§5) Sarcoma 180 solid tumour cells (5×10^6) were subcutaneously implanted into the right armpit of each mouse (body weight 20±2 g) of a group consisting of 5 male mice (ddy strain). 24 hours after implantation,a test compound was abdominally administered to each mouse. 4 days later, blood (each 0.02 ml) was collected from the suborbital plexus vein of each tumour-carrying mouse. The collected sample of blood was dispersed in 9.98 ml of Cell-kit Seven solution. One drop of saponin solution was added to the sample to dissolve erythrocytes and then a microcell counter was used to measure the number of leucocytes. On graph paper, the number of leucocytes was indicated on the y-axis by an arithmetic scale and the does of the test compound was indicated on the x-axis by a logarithmic scale.
(§6) The relationship between the number of peripheral leucocytes and the dosage of the test compound was plotted to obtain WBC4000 viz. the dosage corresponding to […] per mm^3 (about half of the number of leucocytes of normal mice).

in vivo = format: in vivo, mice (ddy strain); settings: mouse, in vivo, ip; read-out: (WBC4000/ED50)* = (WBC4000/ED50)/[(WBC4000/ED50) of MMC1]
Method: as §2, §4, §5, §6

Lipophilicity = format: physicochemical; settings: in comparison with mitomycin C
[6] = Stability of isolated compound; format: physicochemical

For `CO[C@@]12[C@H](COC(N)=O)C3=C(C(=O)C(C)=C(NCCSSCCNC(=O)CC[C@H](N)C(=O)O)C3=O)N1C[C@@H]1N[C@@H]12` [Compound 1, 7-N-[2-[[2-(N^5 -L-glutamino)ethyl]dithio]ethyl]mitomycin C], the MIC [1] was 0.4 µg/mL (≈ 0.668 µM), the MIC [2] was 1.6 µg/mL (≈ 2.67 µM) and the “C.I. (LD50/ED50) (in words)” value (ddy mice) was “very high”. For the same compound, the LD50 at 336 h (Acute toxicity) was 22.5 mg/kg, the selectivity ratio (Acute toxicity) was 2.58 and the “water-solubility (in words)” value (Solubility in water) was “good”. For the same compound, the solubility (Solubility in water) was over 20 mg/mL, the MIC (Escherichia coli ATCC 26) was over 50 µg/mL and the MIC [3] was 0.8 µg/mL (≈ 1.34 µM). For the same compound, the “ILS* (ratio of ILS % to that of mitomycin C)” value (P388 Leukemia; dose 25 mg/kg) was over 2.30, the MIC [4] was 0.8 µg/mL (≈ 1.34 µM) and the “molar ratio of the albomitomycin-type substance at equilibrium” value [5] was 8.5%. The ED50 (Sarcoma 180 solid tumour) was 2.7 mg/kg, the “WBC4000/ED50 (in words)” value (peripheral leucocytes) was “very high” and the selectivity ratio (in vivo) was 4.12.

Compound `CO[C@@]12[C@H](COC(N)=O)C3=C(C(=O)C(C)=C(NCCSSCCNC(=O)C[C@H](N)C(=O)O)C3=O)N1C[C@@H]1N[C@@H]12` [Compound 6, 7-N-[2-[[2-(N^4 -L-asparagino)ethyl]dithio]ethyl]mitomycin C] has an MIC [1] of 0.8 µg/mL (≈ 1.37 µM), an MIC [2] of 3.1 µg/mL (≈ 5.3 µM) and an LD50 at 336 h (Acute toxicity) of 26.3 mg/kg. It also gave a selectivity ratio (Acute toxicity) of 1.81, a solubility (Solubility in water) of over 20 mg/mL and an MIC (Escherichia coli ATCC 26) of over 50 µg/mL. The MIC [3] was 0.8 µg/mL (≈ 1.37 µM), the MIC [4] was 0.8 µg/mL (≈ 1.37 µM) and the ED50 (Sarcoma 180 solid tumour) was 5 mg/kg. For the same compound, the selectivity ratio (in vivo) was 2.38.

For `CO[C@@]12[C@H](COC(N)=O)C3=C(C(=O)C(C)=C(NCCSSCC(=O)O[C@H]4CC[C@H]5[C@@H]6CCc7cc(OC(=O)c8ccccc8)ccc7[C@H]6CC[C@]45C)C3=O)N1C[C@@H]1N[C@@H]12` [Compound 26, 7-N-[2-[[[[17β-(3-benzoyloxy-1,3, 5(10)-estratrienyl)oxy]carbonyl]methyl]dithio]ethyl]mitomycin C], the “C.I. (LD50/ED50) (in words)” value (ddy mice) was “superior to mitomycin C”, the LD50 at 336 h (Acute toxicity) was 18.8 mg/kg and the selectivity ratio (Acute toxicity) was 1.27. For the same compound, the “lipophilicity (in words)” value (Lipophilicity) was “superior to mitomycin C”, the “ILS* (ratio of ILS % to that of mitomycin C)” value (P388 Leukemia; dose 6.25 mg/kg) was over 1.08 and the ED50 (Sarcoma 180 solid tumour) was 5 mg/kg. The “WBC4000/ED50 (in words)” value (peripheral leucocytes) was “superior to mitomycin C” and the selectivity ratio (in vivo) was 2.57.

For `CO[C@@]12[C@H](COC(N)=O)C3=C(C(=O)C(C)=C(NCCSSCCC(=O)O[C@H]4CC[C@H]5[C@@H]6CCc7cc(OC(=O)c8ccccc8)ccc7[C@H]6CC[C@]45C)C3=O)N1C[C@@H]1N[C@@H]12` [Compound 27, 7-N-[2-[[2-[[17β-(3-benzoyloxy-1,3, 5(10)-estratrienyl)oxy]carbonyl]ethyl]dithio]ethyl]mitomycin C], the “C.I. (LD50/ED50) (in words)” value (ddy mice) was “superior to mitomycin C”, the LD50 at 336 h (Acute toxicity) was 22.5 mg/kg and the selectivity ratio (Acute toxicity) was 1.63. For the same compound, the “lipophilicity (in words)” value (Lipophilicity) was “superior to mitomycin C”, the “ILS* (ratio of ILS % to that of mitomycin C)” value (P388 Leukemia; dose 12.5 mg/kg) was over 1.53 and the ED50 (Sarcoma 180 solid tumour) was 4.6 mg/kg. For the same compound, the “WBC4000/ED50 (in words)” value (peripheral leucocytes) was “superior to mitomycin C” and the selectivity ratio (in vivo) was 2.43.

For `CC1=C(NCCSSCC(=O)O[C@H]2CC[C@H]3[C@@H]4CCc5cc(OC(=O)c6ccccc6)ccc5[C@H]4CC[C@]23C)C(=O)C2=C(C1=O)N1C[C@H]3[C@H](N3C)[C@]1(O)[C@H]2COC(N)=O` (stereo partly drawn) [Compound 28, 7-N-[2-[[[[17β-(3-benzoyloxy-1,3, 5(10)-estratrienyl)oxy]carbonyl]methyl]dithio]ethyl]mitomycin D], the “C.I. (LD50/ED50) (in words)” value (ddy mice) was “superior to mitomycin C”, the LD50 at 336 h (Acute toxicity) was 75 mg/kg and the selectivity ratio (Acute toxicity) was 2.53. For the same compound, the “lipophilicity (in words)” value (Lipophilicity) was “superior to mitomycin C”, the “ILS* (ratio of ILS % to that of mitomycin C)” value (P388 Leukemia; dose 25 mg/kg) was over 1.67 and the ED50 (Sarcoma 180 solid tumour) was 9.9 mg/kg. For the same compound, the “WBC4000/ED50 (in words)” value (peripheral leucocytes) was “superior to mitomycin C” and the selectivity ratio (in vivo) was 1.43.

In the case of `CC1=C(/C=C/C(C)=C/C=C/C(C)=C/C(=O)NCCSSc2ccccn2)C(C)(C)CCC1` [Compound "m", N-2-(2-pyridyldithio)ethylretinamide], the “stability (in words)” value [6] is reported as “unstable”.

For `Cc1c(C)c2c(c(C)c1OC(=O)CCC(=O)NCCSSc1ccccn1)CC[C@@](C)(CCC[C@H](C)CCC[C@H](C)CCCC(C)C)O2` [Compound "n"], the “stability (in words)” value [6] was “relatively stable”.

In the case of `CO[C@]12[C@H](COC(N)=O)[C@H]3C(=O)C(N)=C(C)C(=O)[C@]34N3[C@H]1[C@@H]3CN24` [MM-C 2, albomitomycin C, reference compound], the LD50 ip (ddy mice; ddy mice, single i.p., 14 days, Behren Korber's method) is reported as under 12.0 mg/kg, the “(C.I.)* = (LD50/ED50)/[(LD50/ED50) of MMC1]” value (ddy mice; relative to mitomycin C, ip) is reported as 1.16 and the ED50 ip (Sarcoma 180 solid tumour; ddy mice, i.p. 24 h after implantation, 50% reduction of tumour volume at day 7) is reported as 5.4 mg/kg. The “(WBC4000/ED50)* = (WBC4000/ED50)/[(WBC4000/ED50) of MMC1]” value (peripheral leucocytes; relative to mitomycin C, ip, 4 days after dosing) was 0.95.
